Laboratory results from patent publication US20240246980A1, “MODULATORS OF MAS-RELATED G-PROTEIN RECEPTOR D AND RELATED PRODUCTS AND METHODS” (Escient Pharmaceuticals, Inc., priority 2022, published 2024).

molecular target: human MRGPRD (Homo sapiens, UniProt Q8TDS7); assay: MRGPRD antagonist activity, IP-One HTRF assay in CHO cells stably expressing human MRGPRD (versus 100 μM β-Alanine agonist); format: cell-based
Method: Chinese Hamster Ovary (CHO) cells stably expressing human MRGPRD (Eurofins, San Diego CA) were plated in a 384-well plate at 20,000 cells per well in 12 μL of Optimem (Fisher Scientific 11-058-021). Plates were kept in the incubator at 37° C. overnight. Antagonists were solubilized at a concentration of 10 mM in DMSO, and the agonists were solubilized to stock concentrations of either 50 mM in H2O (β-Alanine) or 10 mM in DMSO (all others) and then diluted in assay buffer (final concentrations of 5.7 mM Tris-HCl, 43 mM NaCl, 50 mM LiCl, pH=8). The concentration of DMSO was normalized across the plate. Antagonists were added to the plate using a Tecan D300 Digital Dispenser at nanoliter/picoliter volumes and 2 μL of agonists in assay buffer were added to each well for a final assay volume of 14 μL. Plates were covered and incubated for 1 h at 37° C. and then for 1 h at room temperature. IP-1 standards and HTRF detection reagents were added according to an IP-One-Gq Kit purchased from Cisbio (part number 62IPAPEJ) and incubated in the dark for 1 h at room temperature. Assay plates were read on either a Molecular Devices SpectraMax iD5 plate reader or a BMG ClarioStar plate reader. The HTRF ratio was calculated form the raw data and graphed using GraphPad Prism to calculate IC50 values. Data are expressed as average IC50 values and average percent antagonism calculated as a percent of the maximum efficacy response. For these studies, the variability of the data was assessed by determining the standard error of mean (SEM).
The activity ranges are denoted as follows: “+++++” denotes antagonist activity <100 nM; “++++” denotes antagonist activity between 100 and 500 nM; “+++” denotes activity between 500 and 1000 nM; “++” denotes activity between 1000 and 3000 nM; and “+” denotes activity >3000 nM.

Chain of human MRGPRD (Q8TDS7 whole entry): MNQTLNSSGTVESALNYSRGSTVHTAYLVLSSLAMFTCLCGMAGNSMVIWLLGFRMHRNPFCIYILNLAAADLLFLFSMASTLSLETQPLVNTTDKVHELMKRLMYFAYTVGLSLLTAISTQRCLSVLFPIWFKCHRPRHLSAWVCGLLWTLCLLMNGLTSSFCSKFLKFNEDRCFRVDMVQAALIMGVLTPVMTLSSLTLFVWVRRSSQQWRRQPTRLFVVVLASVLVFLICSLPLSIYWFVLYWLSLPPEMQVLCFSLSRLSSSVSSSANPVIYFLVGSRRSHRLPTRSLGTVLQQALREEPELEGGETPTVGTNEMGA

`COc1cccc(-c2nc([C@@H]3CCCN(C(=O)Nc4ccc(C)cc4F)C3)n3ccccc23)c1` [Compound 1-11] and `COc1cccc(-c2nc(C3CCCN(C(=O)Nc4ccc(C)cc4C)C3)n3ccccc23)c1` (centres unmarked) [Compound 5-4] fall in the same range of IC50: 100 to 500 nM for the first, 100 to 500 nM for the second.

First: COc1cccc(-c2nc([C@@H]3CCCN(C(=O)Nc4cccc(-c5csc(C)n5)c4)C3)n3ccccc23)c1 [Compound 5-61]
Second: COc1cccc(-c2nc(C3CCCN(C(=O)Nc4cccc(C)c4)C3)n3ccccc23)c1 (centres unmarked) [Compound 3-2]
The IC50 of the first is lower: less than 100 nM for the first, 100 to 500 nM for the second. The first is the more potent here.

First: CCNC(=O)N1CCCC(c2nc(-c3cccc(OC)c3)c3ccccn23)C1 (centres unmarked) [Compound 3-9]
Second: CNC(=O)N1CCC[C@H](c2nc(-c3cccc(OC)c3)c3ccccn23)C1 [Compound 2-2]
The IC50 of the first is lower: 100 to 500 nM for the first, greater than 3000 nM for the second. The first is the more potent here.

First: COc1cccc(-c2nc([C@@H]3CCCN3C(=O)Nc3ccc(N(C)C)cc3)n3ccccc23)c1 [Compound 21-5]
Second: COc1cccc(-c2nc(C3CCCN(C(=O)Nc4ccc(N(C)C)cc4)C3)n3ccccc23)c1 (centres unmarked) [Compound 3-25, N-(4-(dimethylamino)phenyl)-3-(1-(3-methoxyphenyl)imidazo[1,5-a]pyridin-3-yl)piperidine-1-carboxamide]
The IC50 of the first is higher: greater than 3000 nM for the first, less than 100 nM for the second.

First: COc1cccc(-c2nc(C3CCCN(C(=O)Nc4ccccc4F)C3)n3ccccc23)c1 (centres unmarked) [Compound 3-28]
Second: COc1cccc(-c2nc([C@@H]3CCCN(C(=O)Nc4ccccc4F)C3)n3ccccc23)c1 [Compound 5-12]
The IC50 of the first is higher: 100 to 500 nM for the first, less than 100 nM for the second.

`COc1cccc(-c2nc([C@H]3CCCN(C(=O)Nc4ccccc4)C3)n3ccccc23)c1` [Compound 3-29] and `COc1cccc(-c2nc(C3CCCN(C(=O)Nc4ccccc4C)C3)n3ccccc23)c1` (centres unmarked) [Compound 3-4] fall in the same range of IC50: 1000 to 3000 nM for the first, 1000 to 3000 nM for the second.

First: COc1cccc(-c2nc(-c3ccc(C(=O)Nc4ccc(N(C)C)cc4)s3)n3ccccc23)c1 [Compound 25-1, N-(4-(dimethylamino)phenyl)-5-(1-(3-methoxyphenyl)imidazo[1,5-a]pyridin-3-yl)thiophene-2-carboxamide]
Second: COc1cccc(-c2nn(-c3cccc(C(=O)Nc4ccc(N(C)C)cc4)c3)c3ncccc23)c1 [Compound 24-1, N-(4-(dimethylamino)phenyl)-3-(3-(3-methoxyphenyl)-1H-pyrazolo[3,4-b]pyridin-1-yl)benzamide]
The IC50 of the first is higher: 1000 to 3000 nM for the first, 100 to 500 nM for the second.

Compared with `COc1ccc(C(=O)N2CCCC(c3nc(-c4cccc(OC)c4)c4cccc(OC)n34)C2)cc1` (centres unmarked) [Compound 14-4], `COc1cccc(-c2nc(C3CCCN(C(=O)c4ccccc4OC)C3)n3c(OC)cccc23)c1` (centres unmarked) [Compound 14-1, (3-(5-methoxy-1-(3-methoxyphenyl)imidazo[1,5-a]pyridin-3-yl)piperidin-1-yl)(2-methoxyphenyl)methanone] is higher in IC50: 100 to 500 nM for the first, 500 to 1000 nM for the second.

`CC(O)c1cccc(-c2nc([C@@H]3CCCN(C(=O)Nc4ccc(N(C)C)cc4)C3)n3ccccc23)c1` (some centres unmarked) [Compound 10-18] and `CN(C)c1ccc(NC(=O)N2CCC[C@@H](c3nc(-c4cccc(C(F)F)c4)c4ccccn34)C2)cc1` [Compound 10-16] fall in the same range of IC50: 100 to 500 nM for the first, 100 to 500 nM for the second.

`CN(C)c1ccc(NC(=O)N2CCC[C@@H](c3nc(-c4cccc(C#N)c4)c4ccccn34)C2)cc1` [Compound 10-12] and `CN(C)c1ccc(NC(=O)N2CCC[C@@H](c3nc(-c4cccc(Cl)c4)c4ccccn34)C2)cc1` [Compound 10-22] fall in the same range of IC50: 500 to 1000 nM for the first, 500 to 1000 nM for the second.

`CN(C)c1ccc(NC(=O)N2CCC[C@@H](c3nc(-c4ccccc4C(F)(F)F)c4ccccn34)C2)cc1` [Compound 10-3] and `CN(C)c1ccc(NC(=O)N2CCC[C@@H](c3nc(-c4ccccc4Cl)c4ccccn34)C2)cc1` [Compound 10-8] fall in the same range of IC50: 500 to 1000 nM for the first, 500 to 1000 nM for the second.

Compared with `COc1cccc(-c2nc([C@@H]3CCCN(C(=O)Nc4ccccc4C(C)=O)C3)n3ccccc23)c1` [Compound 5-34], `COc1cccc(-c2nc(C3CCCN(C(=O)Nc4ccccc4N(C)C)C3)n3ccccc23)c1` (centres unmarked) [Compound 4-3] is lower in IC50: 1000 to 3000 nM for the first, 500 to 1000 nM for the second.

Compared with `Cc1noc(C)c1-c1nc([C@@H]2CCCN(C(=O)Nc3ccc(N(C)C)cc3)C2)n2ccccc12` [Compound 10-55], `COc1ncc(-c2nc([C@@H]3CCCN(C(=O)Nc4ccc(N(C)C)cc4)C3)n3ccccc23)cn1` [Compound 10-60] is higher in IC50: 500 to 1000 nM for the first, greater than 3000 nM for the second.

First: COc1cccc(-c2nc([C@@H]3CCCN(C(=O)NCCN4CCCCC4)C3)n3ccccc23)c1 [Compound 5-46]
Second: COc1cccc(-c2nc([C@@H]3CCCN(C(=O)NC4CCCCC4)C3)n3ccccc23)c1 [Compound 5-43]
The IC50 of the first is higher: 500 to 1000 nM for the first, 100 to 500 nM for the second.

Compared with `COc1cccc(-c2nc(C3CCCN(S(=O)(=O)Cc4ccc(F)cc4)C3)n3ccccc23)c1` (centres unmarked) [Compound 16-6], `COc1cccc(-c2nc([C@H]3CCCN(S(=O)(=O)c4cccc(F)c4)C3)n3ccccc23)c1` [Compound 16-10] is higher in IC50: 100 to 500 nM for the first, 1000 to 3000 nM for the second. The first is the more potent here.

`COc1ccccc1-c1nc(C2CCCN(C(=O)Nc3ccccc3F)C2)n2ccccc12` (centres unmarked) [Compound 11-3] and `Cc1ccc(-c2nc(C3CCCN(C(=O)Nc4ccccc4F)C3)n3ccccc23)cc1` (centres unmarked) [Compound 11-7] fall in the same range of IC50: 1000 to 3000 nM for the first, 1000 to 3000 nM for the second.

First: CC(C)Cn1nc(C(F)(F)F)cc1-c1nc([C@@H]2CCCN(C(=O)Nc3ccc(N(C)C)cc3)C2)n2ccccc12 [Compound 10-69]
Second: CN(C)c1ccc(NC(=O)N2CCC[C@H](c3nc(-c4cccc(F)c4)c4ccccn34)C2)cc1 [Compound 10-28]
The IC50 of the first is lower: 500 to 1000 nM for the first, 1000 to 3000 nM for the second.

`COc1cccc(-c2nc([C@@H]3CCCN(C(=O)NCCS(C)(=O)=O)C3)n3ccccc23)c1` [Compound 5-52] and `COc1cccc(-c2nc([C@@H]3CCCN(C(=O)NCCc4nc(C)cs4)C3)n3ccccc23)c1` [Compound 5-30] fall in the same range of IC50: 100 to 500 nM for the first, 100 to 500 nM for the second.

First: CN(C)C(=O)c1ccc(-c2nc([C@@H]3CCCN(C(=O)Nc4ccc(N(C)C)cc4)C3)n3ccccc23)cc1 [Compound 10-46]
Second: CN(C)C(=O)c1cccc(-c2nc([C@@H]3CCCN(C(=O)Nc4ccc(N(C)C)cc4)C3)n3ccccc23)c1 [Compound 10-71]
The IC50 of the first is higher: greater than 3000 nM for the first, less than 100 nM for the second.

`COc1ccc(-c2nc([C@@H]3CCCN(C(=O)Nc4ccc(N(C)C)cc4)C3)n3ccccc23)cc1` [Compound 10-43] and `CN(C)c1ccc(NC(=O)N2CCC[C@@H](c3nc(-c4ccc(Cl)cc4)c4ccccn34)C2)cc1` [Compound 10-19] fall in the same range of IC50: 500 to 1000 nM for the first, 500 to 1000 nM for the second.

`COc1cccc(-c2nc([C@@H]3CCCN(C(=O)N[C@H]4CC[C@H](O)CC4)C3)n3ccccc23)c1` [Compound 5-70] and `COc1cccc(-c2nc([C@@H]3CCCN(C(=O)NC4CC(C)C4)C3)n3ccccc23)c1` (some centres unmarked) [Compound 5-71] cannot be ordered by IC50: less than 100 nM for the first, less than 100 nM for the second.

Compared with `COc1cccc(-c2nc([C@@H]3CCCN(C(=O)Nc4cccc(CN(C)C)c4)C3)n3ccccc23)c1` [Compound 5-31], `COc1cccc(-c2nc([C@@H]3CCCN(C(=O)Nc4ccc(N(C)C)c(C)c4)C3)n3ccccc23)c1` [Compound 1-7] is lower in IC50: 100 to 500 nM for the first, less than 100 nM for the second.

First: CN(C)c1ccc(NC(=O)N2CCC[C@@H](c3nc(-c4ccccc4)c4ccccn34)C2)cc1 [Compound 10-2]
Second: CN(C)c1ccc(NC(=O)N2CCC[C@@H](c3nc(-c4ccccc4-c4ccccc4)c4ccccn34)C2)cc1 [Compound 10-20]
The IC50 of the first is lower: 500 to 1000 nM for the first, greater than 3000 nM for the second. The first is the more potent here.

`COc1cccc(-c2nc([C@@H]3CCCN(C(=O)Nc4nocc4C)C3)n3ccccc23)c1` [Compound 5-66] and `COc1cccc(-c2nc([C@@H]3CCCN(C(=O)Nc4nccs4)C3)n3ccccc23)c1` [Compound 5-67] cannot be ordered by IC50: less than 100 nM for the first, less than 100 nM for the second.

Compared with `COc1ccc(NC(=O)N2CCC[C@@H](c3nc(-c4cccc(OC)c4)c4ccccn34)C2)cc1` [Compound 1-17], `COc1ccc(NC(=O)N2CCC[C@H](c3nc(-c4cccc(OC)c4)c4ccccn34)C2)cc1` (stereo in doubt) [Compound 5-29] is higher in IC50: less than 100 nM for the first, 1000 to 3000 nM for the second. The first is the more potent here.

Compared with `O=C(Nc1ccccc1F)N1CCCC(c2nc(-c3ccc(F)cc3)c3ccccn23)C1` (centres unmarked) [Compound 11-8], `COc1cccc(-c2nc(C3CCCN(C(=O)c4ccc(F)cc4)C3)n3ccccc23)c1` (centres unmarked) [Compound 12-3] is lower in IC50: 1000 to 3000 nM for the first, 500 to 1000 nM for the second.

First: COc1cccc(-c2nc([C@@H]3CCCN(C(=O)Nc4ccc(C(C)=O)cc4)C3)n3ccccc23)c1 [Compound 5-24]
Second: COc1cccc(-c2nc([C@@H]3CCCN(C(=O)Nc4cccc5ccccc45)C3)n3ccccc23)c1 [Compound 5-39]
The IC50 of the first is lower: less than 100 nM for the first, 100 to 500 nM for the second. The first is the more potent here.

First: COc1cccc(-c2nc(C3CCCN(C(=O)Nc4ccccc4F)C3)n3cccc(OC)c23)c1 (centres unmarked) [Compound 19-1]
Second: COc1cccc(-c2nc([C@H]3CCCN(C(=O)Cc4cccc(F)c4)C3)n3ccccc23)c1 [Compound 12-16]
The IC50 of the first is higher: greater than 3000 nM for the first, 1000 to 3000 nM for the second.

`COc1cccc(-c2nc([C@@H]3CCCN(C(=O)Nc4ccc5c(c4)COCO5)C3)n3ccccc23)c1` [Compound 5-57] and `CN(C)c1ccc(NC(=O)N2CCC[C@@H](c3nc(-c4cccc5c4CCC5)c4ccccn34)C2)cc1` [Compound 10-50] cannot be ordered by IC50: less than 100 nM for the first, less than 100 nM for the second.

`CN(C)c1ccc(NC(=O)N2CCC[C@@H](c3nc(-c4ccc(S(C)(=O)=O)cc4)c4ccccn34)C2)cc1` [Compound 10-35] gave an IC50 greater than 3000 nM.
